Test results from patent US10435399B2, “HDAC6 inhibitory heterocyclic compound” (TAKEDA PHARMACEUTICAL COMPANY LIMITED, priority 2017, dated 2019).

The compounds below were run against T1, HDAC6 enzyme (Homo sapiens, UniProt Q9UBN7) (assay: HDAC6 enzyme inhibitory activity (HDAC-Glo I/II Assay kit)). Conditions: 10 μM; wells without enzyme = 100% inhibition.
T1 construct: transducing full length HDAC6 gene into Sf-9 insect cells; GST; purchased SignalChem; host or cells: Sf-9 insect cells
T1 sequence (Q9UBN7 1-1215): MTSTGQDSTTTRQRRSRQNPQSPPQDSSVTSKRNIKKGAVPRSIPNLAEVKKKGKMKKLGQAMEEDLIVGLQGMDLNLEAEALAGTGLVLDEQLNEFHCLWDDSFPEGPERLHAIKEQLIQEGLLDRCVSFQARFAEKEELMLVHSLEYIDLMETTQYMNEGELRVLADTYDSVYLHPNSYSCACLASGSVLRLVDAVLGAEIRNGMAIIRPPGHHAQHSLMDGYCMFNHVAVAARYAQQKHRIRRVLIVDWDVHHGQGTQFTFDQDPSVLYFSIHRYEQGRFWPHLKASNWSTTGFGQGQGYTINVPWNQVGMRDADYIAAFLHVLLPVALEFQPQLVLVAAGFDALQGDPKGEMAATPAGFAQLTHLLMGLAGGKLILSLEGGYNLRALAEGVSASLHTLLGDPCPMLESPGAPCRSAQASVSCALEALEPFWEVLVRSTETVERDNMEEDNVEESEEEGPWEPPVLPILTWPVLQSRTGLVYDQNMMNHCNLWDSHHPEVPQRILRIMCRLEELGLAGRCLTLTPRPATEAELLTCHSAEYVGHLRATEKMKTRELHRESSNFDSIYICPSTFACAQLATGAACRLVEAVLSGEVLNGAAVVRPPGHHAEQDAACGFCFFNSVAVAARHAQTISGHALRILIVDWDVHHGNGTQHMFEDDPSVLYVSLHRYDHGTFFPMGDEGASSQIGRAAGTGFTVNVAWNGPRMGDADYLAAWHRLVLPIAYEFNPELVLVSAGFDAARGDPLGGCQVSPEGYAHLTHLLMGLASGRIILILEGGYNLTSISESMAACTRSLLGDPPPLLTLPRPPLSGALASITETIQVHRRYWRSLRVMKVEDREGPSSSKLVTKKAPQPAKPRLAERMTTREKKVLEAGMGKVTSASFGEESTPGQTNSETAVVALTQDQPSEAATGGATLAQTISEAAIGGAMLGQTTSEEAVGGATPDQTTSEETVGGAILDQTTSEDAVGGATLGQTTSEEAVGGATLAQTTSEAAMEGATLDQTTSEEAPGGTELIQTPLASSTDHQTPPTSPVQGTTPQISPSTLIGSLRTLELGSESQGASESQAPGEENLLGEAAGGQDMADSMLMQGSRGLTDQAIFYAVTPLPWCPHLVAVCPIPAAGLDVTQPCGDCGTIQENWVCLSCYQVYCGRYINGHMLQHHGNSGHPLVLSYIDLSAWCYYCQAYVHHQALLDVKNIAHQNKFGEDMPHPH
Format: biochemical
Procedure, shortened: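 Luminescence read-out after 20 min reaction with HDAC-Glo substrate-developer, following 60 min room-temperature preincubation of compound with Sf-9-expressed, GST-purified full-length enzyme. Inhibition is relative to no-enzyme wells set as 100%.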

Row | Structure (SMILES) | HDAC6 inhibitory rate (%) (10 μM)
1 | O=C1c2cc(-c3nnc(C(F)F)o3)ccc2CN1N1CCC(F)(F)CC1c1cccc(F)c1 (stereo not drawn) [Example 562, 2-(4,4-difluoro-2-(3-fluorophenyl)piperidin-1-yl)-6-(5-(difluoromethyl)-1,3,4-oxadiazol-2-yl)isoindolin-1-one (optical isomer)] | 99%

Same assay, conditions: 10 μM; wells without enzyme = 100% inhibition; read-out: HDAC6 inhibitory rate (%) (10 μM)

Row | Structure (SMILES) | inhibition at 10 µM
2 | O=C1c2cc(-c3nnc(C(F)F)o3)ccc2CN1c1ccccc1-n1cccn1 [Example 330, 6-(5-(difluoromethyl)-1,3,4-oxadiazol-2-yl)-2-(2-(1H-pyrazol-1-yl)phenyl)-isoindolin-1-one] | 99%
3 | O=C1c2cc(-c3nnc(C(F)F)o3)ccc2CN1[C@@H]1CCCC[C@H]1N1CCCS1(=O)=O [Example 4, 6-(5-(difluoromethyl)-1,3,4-oxadiazol-2-yl)-2-((1R,2R)-2-(1,1-dioxido-1,2-thiazolidin-2-yl)cyclohexyl)isoindolin-1-one] | 99%
4 | Cc1cc(-c2ccccc2N2Cc3ccc(-c4nnc(C(F)F)o4)cc3C2=O)n(C)n1 [Example 158, 6-(5-(difluoromethyl)-1,3,4-oxadiazol-2-yl)-2-(2-(1,3-dimethyl-1H-pyrazol-5-yl)phenyl)isoindolin-1-one] | 100%
5 | COCCOc1ccccc1-c1ccccc1N1Cc2ccc(-c3nnc(C(F)F)o3)cc2C1=O [Example 317, 6-(5-(difluoromethyl)-1,3,4-oxadiazol-2-yl)-2-(2′-(2-methoxyethoxy)biphenyl-2-yl)isoindolin-1-one] | 97%
6 | O=C1c2cc(-c3nnc(C(F)F)o3)ccc2CN1N1CCCC1c1cccc(F)c1 (stereo not shown) [Example 553, 6-(5-(difluoromethyl)-1,3,4-oxadiazol-2-yl)-2-(2-(3-fluorophenyl)pyrrolidin-1-yl)isoindolin-1-one] | 100%
7 | O=C(N[C@@H]1CCCC[C@H]1N1Cc2ncc(-c3nnc(C(F)F)o3)cc2C1=O)c1cccc(Cl)c1 [Example 163, 3-chloro-N-((1R,2R)-2-(3-(5-(difluoromethyl)-1,3,4-oxadiazol-2-yl)-5-oxo-5,7-dihydro-6H-pyrrolo[3,4-b]pyridin-6-yl)cyclohexyl)benzamide] | 98%
8 | O=C1c2cc(-c3nnc(C(F)F)o3)cnc2CN1c1ccccc1Br [Example 240, 6-(2-bromophenyl)-3-(5-(difluoro-methyl)-1,3,4-oxadiazol-2-yl)-6,7-dihydro-5H-pyrrolo[3,4-b]-pyridin-5-one] | 98%
9 | O=C1c2cc(-c3nnc(C(F)F)o3)ccc2CN1c1ccccc1-c1cccc(OC(F)(F)F)c1 [Example 300, 6-(5-(difluoromethyl)-1,3,4-oxadiazol-2-yl)-2-(3′-(trifluoromethoxy)biphenyl-2-yl)isoindolin-1-one] | 97%
10 | O=C1c2cc(-c3nnc(C(F)F)o3)cnc2CN1Cc1ccc(F)c(F)c1 [Example 338, 6-(3,4-difluorobenzyl)-3-(5-(difluoromethyl)-1,3,4-oxadiazol-2-yl)-6,7-dihydro-5H-pyrrolo[3,4-b]pyridin-5-one] | 97%
11 | O=C1c2cc(-c3nnc(C(F)F)o3)cnc2CN1[C@@H]1CCCC[C@H]1NC(=O)C1(c2ccc(F)cc2)CC1 [Example 221, N-((1R,2R)-2-(3-(5-(difluoromethyl)-1,3,4-oxadiazol-2-yl)-5-oxo-5,7-dihydro-6H-pyrrolo[3,4-b]pyridin-6-yl)cyclohexyl)-1-(4-fluorophenyl)-cyclopropanecarboxamide] | 101%
12 | O=C1c2cc(-c3nnc(C(F)F)o3)cc(F)c2CN1[C@@H]1COCC[C@H]1NC(=O)C1(C(F)(F)F)CCC1 [Example 205, N-((3S,4R)-3-(6-(5-(difluoromethyl)-1,3,4-oxadiazol-2-yl)-4-fluoro-1-oxo-1,3-dihydro-2H-isoindol-2-yl)tetrahydro-2H-pyran-4-yl)-1-(trifluoromethyl)cyclobutanecarboxamide] | 101%
13 | O=C(N[C@@H]1CCCC[C@H]1N1Cc2ccc(-c3nnc(C(F)F)o3)cc2C1=O)C1CC2(CCC2)C1 [Example 79, N-((1R,2R)-2-(6-(5-(difluoromethyl)-1,3,4-oxadiazol-2-yl)-1-oxo-1,3-dihydro-2H-isoindol-2-yl)cyclohexyl)spiro[3.3]heptane-2-carboxamide] | 97%
14 | CC(C)(C(=O)N[C@@H]1CCCC[C@H]1N1Cc2ccc(-c3nnc(C(F)F)o3)cc2C1=O)c1ccccc1 [Example 88, N-((1R,2R)-2-(6-(5-(difluoromethyl)-1,3,4-oxadiazol-2-yl)-1-oxo-1,3-dihydro-2H-isoindol-2-yl)cyclohexyl)-2-methyl-2-phenylpropanamide] | 99%
15 | CCCC(=O)N[C@@H]1CCCC[C@H]1N1Cc2ncc(-c3nnc(C(F)F)o3)cc2C1=O [Example 462, N-((1R,2R)-2-(3-(5-(difluoro-methyl)-1,3,4-oxadiazol-2-yl)-5-oxo-5,7-dihydro-6H-pyrrolo[3,4-b]pyridin-6-yl)cyclohexyl) butanamide] | 100%
16 | CC(C)(F)C(=O)N[C@@H]1CCCC[C@H]1N1Cc2ncc(-c3nnc(C(F)F)o3)cc2C1=O [Example 214, N-((1R,2R)-2-(3-(5-(difluoromethyl)-1,3,4-oxadiazol-2-yl)-5-oxo-5,7-dihydro-6H-pyrrolo[3,4-b]pyridin-6-yl)cyclohexyl)-2-fluoro-2-methylpropanamide] | 100%
17 | CC(C)(C(=O)N[C@@H]1CCCC[C@H]1N1Cc2ncc(-c3nnc(C(F)F)o3)cc2C1=O)C(F)(F)F [Example 217, N-((1R,2R)-2-(3-(5-(difluoromethyl)-1,3,4-oxadiazol-2-yl)-5-oxo-5,7-dihydro-6H-pyrrolo[3,4-b]pyridin-6-yl)cyclohexyl)-3,3,3-trifluoro-2,2-dimethylpropanamide] | 98%
18 | O=C1c2cc(-c3nnc(C(F)F)o3)ccc2CN1CCOCc1ccccc1 [Example 234, 2-(2-(benzyloxy)ethyl)-6-(5-(difluoromethyl)-1,3,4-oxadiazol-2-yl)isoindolin-1-one] | 98%
19 | Cn1cc(-c2ccccc2)c(N2Cc3ccc(-c4nnc(C(F)F)o4)cc3C2=O)n1 [Example 188, 6-(5-(difluoromethyl)-1,3,4-oxadiazol-2-yl)-2-(1-methyl-4-phenyl-1H-pyrazol-3-yl)isoindolin-1-one] | 98%
20 | Cc1ccc(S(=O)(=O)N2CCOC[C@@H]2CN2Cc3c(F)cc(-c4nnc(C(F)F)o4)cc3C2=O)cc1 [Example 198, 6-(5-(difluoromethyl)-1,3,4-oxadiazol-2-yl)-4-fluoro-2-(((3S)-4-((4-methylphenyl)sulfonyl)morpholin-3-yl)methyl)isoindolin-1-one] | 99%
21 | C[C@@H](c1ccc(F)cc1)N1Cc2ncc(-c3nnc(C(F)F)o3)cc2C1=O [Example 141, 3-(5-(difluoromethyl)-1,3,4-oxadiazol-2-yl)-6-((1S)-1-(4-fluorophenyl)ethyl)-6,7-dihydro-5H-pyrrolo[3,4-b]pyridin-5-one] | 100%
22 | Cn1cc(-c2c(F)cccc2N2Cc3ccc(-c4nnc(C(F)F)o4)cc3C2=O)cn1 [Example 436, 6-(5-(difluoro-methyl)-1,3,4-oxadiazol-2-yl)-2-(3-fluoro-2-(1-methyl-1H-pyrazol-4-yl)phenyl)iso-indolin-1-one] | 98%
